The numbers were not newly measured in US20110189319A1, “Lifeforce liquid supplement” (priority 2010, published 2011), which cites them from elsewhere.

Series [1] addresses phosphodiesterase (PDE) type-1.
The test system of series [2] is permanent middle cerebral artery occlusion in rats. The following applies: rats, 2,3,5-triphenyltetrazolium-chloride staining.
Series [3] concerns rat brain synaptosomes.
Series [4] concerns patients suffering from mild to moderate dementia. The following applies: 10 or 20 mg three times a day, sixteen weeks.
In series [5] the test system is elderly patients with chronic cerebral dysfunction.
Series [6] has as its system healthy female volunteers. To be noted: 40 mg three times a day, two days.
For series [7], the system named is patients suffering from multiple cerebral infarcts.
Series [8] concerns INTERMAP participants.
For series [9], the system named is women. To be noted: highest versus least dietary intake.
For series [10] the following is noted: oral, healthy male volunteers, PET.
Series [11] has as its system herpes virus.
In series [12] the test system is female health professionals. The following applies: about 262.4 versus 4.4 milligrams per day.
For series [13] the following is noted: in vivo.
Series [14] deals with exercise capacity. The following applies: 750 mg soybean-derived daily for 10 d.
The test system of series [15] is young adults. To be noted: 300 mg each day for a month, neuroticism scores above the median.
Series [16] has as its system healthy elderly volunteers. The following applies: 100 mg×3/day p.o., 12 weeks.
Series [17] concerns elderly with age-associated memory impairment. The following applies: in vivo.
In series [18] the test system is lymphocytes. To be noted: relative to beta-carotene.
For series [19], the system named is AMD patients. The following applies: 10 mg daily, 12 months.
The conditions of series [20]: in vivo. The source holds these as a separate data set.
Assay in series [21]: not given
This is another data set of the same source.

The subject of series [22] is patients affected by chronic cerebrovasculopathy. To be noted: 1000 mg/day i.m.
Series [23] concerns patients with Alzheimer disease. The following applies: 1,000 mg/day.
The mark [24] stands for this setting: 100 microM, ascorbate/Fe2+ oxidative stress.
[25] abbreviates: 2,038 subjects without hypertension.
[26] abbreviates: 2,238 subjects not using drugs, supplements or special diet.
Where [27] appears, read: high (0.67% kcal) versus lower intake, all participants.

Read-outs that look alike come from different tables or passages of the source.

As usually defined, the IC50 is the concentration that gives 50% inhibition. For `CCOC(=O)C1=C[C@]2(CC)CCCN3CCc4c(n1c1ccccc41)[C@@H]32` [Vinpocetine], the IC50 in series [1] is about 10 µM. Further, the “decrease of infarct volume compared to control” value in [2] is 42%. Also, in series [3] (setting [24]), the “decrease of DCFH2-DA fluorescence” value was “about 50%” and the “decrease of DHR 123 fluorescence” value is given as about 83%. Further, in series [3] (concentration-dependent), the “ascorbate/Fe2+ stimulated consumption of oxygen and TBARS accumulation” value was “inhibited”. Also, where the note is “given with food”, the “absorption of an ingested dose” value is reported as “up to 60%”. Further, under “in vivo”, the “elimination half-life following ingestion” value is on record as “one to two”; the “levels peak in the bloodstream after ingestion” value is “an hour and a half”; the “time to peak plasma levels after ingestion” value was “one to one and a half”. Also, the “absorption of an ingested dose” value (on an empty stomach) is on record as at least 7%. In addition, the “time in which most of a dose is excreted as apovincaminic acid” value (urine) is at most 24 h. In addition, in series [4], the “cognitive improvement versus placebo” value is “Statistically significant cognitive improvements” and the side effects result is recorded as “no clinically relevant side effects”. Further, the “cognitive evaluations versus placebo” value in [5] (10 mg tid thirty days, then 5 mg tid sixty days) is given as “scored consistently better in all cognitive evaluations”. The side effects result in series [5] (ninety-day trial) is on record as “No serious side effects”. Moreover, the memory versus placebo result in series [6] was “significantly improved”. The side effects entry in [7] (in vivo) is “No serious side effect”. For the same compound, the “digit span backward test” value in series [7] (three months) is listed as “did not show any significant worsening”. Also, the “flow velocities after breath holding, acute phase, versus placebo” value in series [7] (transcranial Doppler) is listed as “significantly lower”.

Regarding omega-3 fatty acid, in [8] (setting [25]), the average diastolic reduction is listed as 0.92 mm Hg and the average systolic reduction is on record as 0.91 mm Hg. Further, in [8] (setting [26]), the “reduction in diastolic blood pressure” value was 0.98 mm Hg and the “reduction in systolic blood pressure” value is reported as 1.01 mm Hg. Besides, in series [8] (setting [27]), the “lower average diastolic blood pressure” value was 0.57 mm Hg and the “lower average systolic blood pressure” value is given as 0.55 mm Hg. The “lower risk of dry eye syndrome” value in [9] was 17%.

Regarding `CCOC(=O)C1=C[C@]2(CC)CCCN3CCc4c(n1c1ccccc41)[C@@H]32` [[11C] vinpocetine], the “average maximum brain uptake” value in [10] is 0.7 % of the administered total dose.

On to `COc1ccc2c(=O)oc3c(OC)cc(CCN(C)C)c4c(=O)oc1c2c34` [taspine], for which, in series [11], the “activity against herpes virus” value is “active”.

As for vitamin E, the “less likely to develop cataracts” value in series [12] is given as 14%.

In the case of `CC(C)=CCC[C@](C)(O[C@@H]1O[C@H](CO)[C@@H](O)[C@H](O)[C@H]1O)[C@H]1CC[C@]2(C)[C@@H]1[C@H](O)C[C@@H]1[C@@]3(C)CC[C@H](O)C(C)(C)[C@@H]3[C@@H](O[C@@H]3O[C@H](CO)[C@@H](O)[C@H](O)[C@H]3O)C[C@]12C` [Rg1, ginsenoside Rg1], the “elimination from the blood” value in [13] was “rapidly eliminated from the blood”.

Turning to Phosphatidylserine, the exercise capacity entry in series [14] is listed as “improved exercise capacity”. For the same compound, the “feelings of stress and mood” value in [15] was “feeling less stressed and having a better mood”. The “outcome measures of age related cognitive decline” value in series [16] was “significant drug over time effect”. Also, the “safe dosage for older persons” value in series [17] is listed as at most 200 mg three times daily.

Take `CC(C)=CCC[C@](C)(O[C@@H]1O[C@H](CO[C@@H]2O[C@H](CO)[C@@H](O)[C@H](O)[C@H]2O)[C@@H](O)[C@H](O)[C@H]1O)[C@H]1CC[C@]2(C)[C@@H]1[C@H](O)C[C@@H]1[C@@]3(C)CC[C@H](O[C@@H]4O[C@H](CO)[C@@H](O)[C@H](O)[C@H]4O[C@@H]4O[C@H](CO)[C@@H](O)[C@H](O)[C@H]4O)C(C)(C)[C@@H]3CC[C@]12C` [Rb1, Ginsenoside Rb1]: the oral bioavailability entry in series [13] (po) is “low oral bioavailability”.

Regarding `C[C@]12N[C@H](Cc3ccccc31)c1ccccc12` [MK-801], the “decrease of infarct volume compared to control” value in [2] is given as 18%.

In the case of `CC(C)=CCC/C(C)=C/C=C/C(C)=C/C=C/C(C)=C/C=C/C=C(C)/C=C/C=C(C)/C=C/C=C(\C)CCC=C(C)C` [Lycopene], in series [18], the “protection of lymphocytes from membrane damage and cell death” value is reported as “twice as efficiently as beta-carotene”.

Consider `CC1=C[C@H](O)CC(C)(C)[C@H]1/C=C/C(C)=C/C=C/C(C)=C/C=C/C=C(C)/C=C/C=C(C)/C=C/C1=C(C)C[C@@H](O)CC1(C)C` [Lutein], for which, in series [19], the “increase in macular pigment density relative to placebo” value is recorded as 50% and the “visual function (glare recovery, contrast sensitivity, visual acuity) vs. placebo” value is “significant improvements”. In addition, the bioavailability result in series [20] was “approximately 70%”.

On to `C[N+](C)(C)CCOP(=O)(O)OP(=O)([O-])OC[C@H]1O[C@@H](n2ccc(N)nc2=O)[C@H](O)[C@@H]1O` [Citicoline, cytidine 5′-diphosphocholine], for which the bioavailability entry in series [21] (in vivo) is “greater than 90%”. Further, the excreted in feces result in series [21] (oral doses, healthy adults) is listed as “less than one”. For the same compound, in series [21] (oral, biphasic), the “first plasma peak after ingestion” value was “one” and the “second larger plasma peak post-dosing” value is 24 h. Besides, in series [22], the side-effects entry was “No side-effects were detected”. The tolerability entry in [23] is reported as “well tolerated”.
